According to article PMC12498411, “Antidepressant-like Properties of a Selenium-Containing Pyridinium Salt Explored through In Vitro, In Vivo, and In Silico Approaches” (ACS Chemical Neuroscience, 2025):
Like-named read-outs stand apart in the source and are kept apart here.

Key:
female Swiss mice = assay: Acute oral toxicity, OECD Protocol 423 Acute Toxic Class Method; format: in vivo, mouse; settings: for Food intake vs control: 50 mg/kg or 300 mg/kg; for Food intake vs control / Physical signs / Animal mortality: 14 days; for Plasma ALT activity / Plasma urea levels / Physical signs / Animal mortality: 50 and 300 mg/kg; for Physical signs / Animal mortality: gavage, female mice; for Animal mortality: single dose
Experimental: The evaluation of the acute toxicity of compounds 3A and 3B via oral administration was conducted in female Swiss mice, following the guidelines outlines in Protocol 423–OECD. The acute oral toxicity study of compound 3C was previously conducted by our research group, showing low toxicity and therefore was not evaluated here.
The animals were divided into 3 experimental groups (n = 6 mice/group) for each dosage testing: (I) Control, (II) Compound 3A, and (III) Compound 3B. Both compounds (3A and 3B) were administered at a single dose of 50 or 300 mg/kg via gavage, while control animals received water (vehicle). This high dose (300 mg/kg) was fractionated into three oral administrations of 100 mg/kg at a volume of 10 mL/kg with an interval of 30 min each. Over a period of 14 days, water and food consumption were monitored. In addition, changes in body weight and behavioral parameters such as lethargy, piloerection, and diarrhea were observed. Following this evaluation period, locomotion and exploration of the animals were assessed using the OFT. Subsequently, the animals were euthanized by an overdose of isoflurane, and blood, brain, liver, and kidney samples were collected for ex vivo analysis.
Blood plasma was used to assess liver and kidney function markers by quantifying the activity of AST and ALT, as well as urea levels, using commercially available kits (LABTEST; BIOCLIN). The brain, liver and kidneys were employed to investigate potential oxidative damage to lipids as a toxicity parameter utilizing the TBARS technique.
The aim of this behavioral test is to assess the locomotion and exploration behavior of the animals using an open field apparatus measuring 30 cm × 30 cm × 15 cm, constructed from plywood with a floor divided into nine quadrants, facilitating free movement for the animals. During the OFT, the animals were positioned in the center of the apparatus and subjected to a 5 min testing period, following the protocol outlined in literature. The number of quadrant crossings and rearings was recorded and quantified during testing phase.

MAO-B = target: T1, MAO-B (Mus musculus, UniProt Q8BW75); assay: Cerebral MAO-B activity, mitochondria-enriched mouse brain fraction (kynuramine, fluorimetric); format: biochemical
T1 construct: Mitochondria-enriched brain preparations were obtained in accordance with established methodology outlined in literature; from tissue; host or cells: mouse brain, mitochondria-enriched fraction
T1 sequence (Q8BW75 1-520): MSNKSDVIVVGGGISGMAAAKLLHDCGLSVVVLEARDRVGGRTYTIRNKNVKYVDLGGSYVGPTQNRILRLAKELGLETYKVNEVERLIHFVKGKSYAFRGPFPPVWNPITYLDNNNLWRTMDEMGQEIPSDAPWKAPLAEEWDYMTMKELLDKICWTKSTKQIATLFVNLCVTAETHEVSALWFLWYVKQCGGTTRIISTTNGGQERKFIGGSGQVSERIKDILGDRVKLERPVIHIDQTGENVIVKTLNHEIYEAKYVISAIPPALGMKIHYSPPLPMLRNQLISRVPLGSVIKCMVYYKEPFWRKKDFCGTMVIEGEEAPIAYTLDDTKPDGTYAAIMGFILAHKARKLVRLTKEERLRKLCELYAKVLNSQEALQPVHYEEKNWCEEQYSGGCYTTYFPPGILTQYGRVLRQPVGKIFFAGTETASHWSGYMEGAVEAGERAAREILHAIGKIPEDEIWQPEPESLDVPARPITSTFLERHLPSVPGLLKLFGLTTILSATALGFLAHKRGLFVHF
Experimental: Mitochondria-enriched brain preparations were obtained in accordance with established methodology outlined in literature. The homogenate was prepared using the mouse brain tissue and a homogenization buffer (Na2PO4/KH2PO4/sucrose) at a ratio of 1:4 (w/v). The homogenate was centrifuged at 900g at 4 °C for 5 min. The resulting supernatant was separated and subjected to centrifugation at 12,500g for 15 min. The resulting pellet was resuspended in the homogenization buffer and subjected to a further round of centrifugation under identical conditions. Finally, the mitochondrial pellet obtained was reconstituted in an assay buffer solution (Na2PO4/KH2PO4/KCl). Protein concentration was estimated using the Bradford method and standardized as 1 mg/mL for the experiments.
MAO activity was assessed following the method outlined by Krajl, with some modifications by Matsumoto. Briefly, a 100 μL aliquot of the mitochondria-rich fraction was incubated at 37 °C for 5 min with specific MAO inhibitors: clorgyline (250 nM, a MAO-A inhibitor), or pargyline (250 nM, a MAO-B inhibitor). Then, 10 μL of each compound was introduced at varying concentrations (25–200 μM). Water (10 μL) was used in the control tubes. Afterward, the substrate, 20 μL of kynuramine dihydrobromide, was added to achieve a final concentration of 90 μM for MAO-A and 60 μM for MAO-B. The samples were incubated at 37 °C for 30 min. The reaction was halted by the addition of 300 μL of 10% trichloroacetic acid (TCA). After centrifuging at 16,000g for 15 min, an aliquot of 800 μL of the supernatant was mixed with 1 mL of 1 M sodium hydroxide (NaOH). The samples were measured using a fluorimeter with excitation at 315 nm and emission at 380 nm.

[1] = system: cerebral lipid peroxidation; assay: TBARS assay, SNP-induced lipid peroxidation in brain homogenate; format: biochemical, mouse; settings: mouse brain homogenate, SNP-induced
Experimental: Brains from mice of both sexes were used for in vitro assays, each performed in duplicate across three independent experiments (n = 3), conducted on different days.
The brain tissues were homogenized in a 50 mM Tris-HCl buffer at pH 7.4, using a 1:10 ratio (w/v). The freshly prepared homogenate was then centrifuged at 900g for 10 min, yielding a low-speed supernatant (S1). Lipid peroxidation was evaluated using the TBARS method as previously described. Lipid peroxidation was induced by 0.3 mM SNP. A 100 μL aliquot of S1 was incubated for 1 h at 37 °C in the presence of the compounds 3A, 3B, and 3C at concentrations ranging from 25 to 500 μM, and SNP or water (to control). The color reaction was initiated by adding 500 μL of a 0.8% thiobarbituric acid (TBA) solution, followed by 200 μL of 8.1% sodium dodecyl sulfate (SDS) and 500 μL of acetic acid (pH 3.4). The reaction mixture was incubated at 95 °C for 1 h. The absorbance was measured using a spectrophotometer at a wavelength of 532 nm. Trolox (100 μM), an antioxidant analogous to vitamin E, served as a positive control. The results were reported as nmol TBARS per gram of tissue. A parallel TBARS experiment was also conducted using a standard alkyl aryl selenide (2-((phenylselanyl)-methyl)-pyridine), dissolved in DMSO at the same concentrations tested, ranging from 25 to 500 μM.

| SMILES | Body weight at the last measurement (last day) vs control (female Swiss mice; 50 mg/kg) | Plasma AST activity (female Swiss mice; 50 mg/kg) | Water consumption vs control (female Swiss mice; 50 mg/kg) | Food intake vs control (female Swiss mice) | Water consumption vs control (female Swiss mice; 300 mg/kg) | Plasma ALT activity (female Swiss mice) | Plasma urea levels (female Swiss mice) | Physical signs (female Swiss mice) | Animal mortality (female Swiss mice) | IC50 (MAO-B) | IC50 [1] | Ex vivo lipid peroxidation (TBARS) in liver (female Swiss mice; 50 mg/kg) | Ex vivo lipid peroxidation (TBARS) in liver (female Swiss mice; 300 mg/kg) | Plasma AST activity (female Swiss mice; 300 mg/kg) | IC50 (MAO-B; mouse brain mitochondria-rich fraction, 25–200 μM, kynuramine 60 μM, read-out: IC50 for MAO-B) | Concentrations with significant inhibition of MAO-B activity (MAO-B; tested 25–200 μM, Dunnett vs control) |
| --- | --- | --- | --- | --- | --- | --- | --- | --- | --- | --- | --- | --- | --- | --- | --- | --- |
| O=C(C[n+]1ccccc1C[Se]c1ccccc1)c1ccccc1.[Br-] [Compound 3A, 1-(2-oxo-2-phenylethyl)-2-((phenylselanyl)methyl)pyridin-1-ium bromide] | reduction in body weight | did not affect AST activity | decreased | ate similar to the control group | no significant difference | remained unchanged | remained similar | did not indicate any observable changes | no instances of animal mortality | 129 µM | 150 µM |  |  |  |  |  |
| Cc1ccc(C(=O)C[n+]2ccccc2C[Se]c2ccccc2)cc1 [Compound 3B, 1-(2-oxo-2-(p-tolyl)ethyl)-2-((phenylselanyl)methyl)pyridin-1-ium bromide] | did not differ significantly | did not affect AST activity |  | ate similar to the control group | no significant difference | remained unchanged | remained similar | did not indicate any observable changes | no instances of animal mortality |  | 130 µM | an increase in damage was observed | not evident at the higher dose | an increase was observed | 91.1 µM | ≥ 50 µM |
